Laboratory results published in US7205382B2, “Peptides, the production and use thereof for binding immunoglobulins” (Fresenius Medical Care Affina GmbH, priority 2000, dated 2007).
Bridge positions count the residues as written; N and C are the ends. Square brackets hold non-standard residues; d marks the D form. Ends that are not written are not given here. cellulose = not defined here; βAla = NCCC(=O)O

What was measured:
Format in all cases: binding
Design in all cases: key: No binding of immunoglobulin for the defined peptide variant, detection negative: 0; Binding of immunoglobulin for the defined peptide variant, detection positive: +
serum albumin = test: Cellulose-immobilized 13-mer peptide variants incubated with serum albumin (negative control), anti-human IgG-AP detection; details: blocking buffer without addition, 3 h room temperature
How it was run: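 Membrane-bound peptides, spaced by two β-alanines, are probed with 1 μg/ml IgG-Fc or 1:10,000 serum for 3 h at room temperature; blocking buffer alone acts as control. Detection uses anti-human IgG-AP (1.2 μg/ml) and NBT/BCIP.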

[1] = tested on: immunoglobulins in human plasma; test: Cellulose-immobilized 13-mer peptide variants incubated with human plasma, anti-human IgG-AP detection; details: human plasma as sample, diluted 1:10,000 in blocking buffer, 3 h room temperature
How it was run: (§1)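 Spot membrane, (βA)(βA) spacer; T-TBS pH 8.0 wash, block 5% saccharose/4% BSA. 3 h RT with IgG-Fc 1 μg/ml, serum 1:10,000, or block buffer only (specificity control). 3× wash, AP-anti-human IgG 1.2 μg/ml, NBT/BCIP in pH 9.5 buffer.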

human IgG-Fc = test: Cellulose-immobilized 13-mer peptide variants incubated with human IgG-Fc, anti-human IgG-AP detection; details: IgG-Fc 1 μg/ml in blocking buffer, 3 h room temperature
How it was run: as §1

| Substance | Result for incubation with serum albumin (immunoglobulin binding detection) (serum albumin) | Result for incubation with human plasma (immunoglobulin binding detection) [1] | Result for incubation with human IgG-Fc (immunoglobulin binding detection) (human IgG-Fc) |
| --- | --- | --- | --- |
| 06F: cellulose-bound 13-mer variant DCAWHFGELVWCT-(βA)(βA) (DCAWHFGELVWCT[βAla][βAla]; disulfide 2-12 (inferred); not fully specified (N-terminus); printed as DCAWHFGELVWCT-(βA)(βA); also: cellulose-bound) | 0 | 0 | 0 |
| 07R: cellulose-bound 13-mer variant DCAWHLRELVWCT-(βA)(βA) (DCAWHLRELVWCT-{βAla-βAla-cellulose}; disulfide 2-12 (inferred); not fully specified (N-terminus); printed as DCAWHLRELVWCT-(βA)(βA); reading uncertain) | 0 | 0 | 0 |
| 07S: cellulose-bound 13-mer variant DCAWHLSELVWCT-(βA)(βA) (DCAWHLSELVWCT-{βAla-βAla-cellulose}; disulfide 2-12 (inferred); not fully specified (N-terminus); printed as DCAWHLSELVWCT-(βA)(βA); reading uncertain) | 0 | 0 | 0 |
| 06P: cellulose-bound 13-mer variant DCAWHPGELVWCT-(βA)(βA) (DCAWHPGELVWCT-{βAla-βAla-cellulose}; disulfide 2-12 (inferred); not fully specified (N-terminus); printed as DCAWHPGELVWCT-(βA)(βA); reading uncertain) | 0 | 0 | 0 |
| 03V: cellulose-bound 13-mer variant DCVWHLGELVWCT-(βA)(βA) (DCVWHLGELVWCT-{βAla-βAla-cellulose}; disulfide 2-12 (inferred); reading uncertain; also: printed as DCVWHLGELVWCT-(βA)(βA)) | 0 | 0 | 0 |
| 01R: cellulose-bound 13-mer variant RCAWHLGELVWCT-(βA)(βA) (RCAWHLGELVWCT-{βAla-βAla-cellulose}; disulfide 2-12 (inferred); reading uncertain; also: printed as RCAWHLGELVWCT-(βA)(βA)) | 0 | 0 | + |
| 12F: cellulose-bound 13-mer variant DCAWHLGELVWFT-(βA)(βA) (DCAWHLGELVWFT-{βAla-βAla-cellulose}; not fully specified; printed as DCAWHLGELVWFT-(βA)(βA); reading uncertain) | 0 | 0 | 0 |
| 08Q: cellulose-bound 13-mer variant DCAWHLGQLVWCT-(βA)(βA) (DCAWHLGQLVWCT-{βAla-βAla-cellulose}; disulfide 2-12 (inferred); reading uncertain; also: printed as DCAWHLGQLVWCT-(βA)(βA)) | 0 | + | + |
| 02G: cellulose-bound 13-mer variant DGAWHLGELVWCT-(βA)(βA) (DGAWHLGELVWCT[βAla][βAla]; not fully specified; printed as DGAWHLGELVWCT-(βA)(βA); also: cellulose-bound) | 0 | 0 | 0 |
| 06R: cellulose-bound 13-mer variant DCAWHRGELVWCT-(βA)(βA) (DCAWHRGELVWCT-{βAla-βAla-cellulose}; disulfide 2-12 (inferred); not fully specified (N-terminus); printed as DCAWHRGELVWCT-(βA)(βA); reading uncertain) | 0 | + | + |
| 11Q: cellulose-bound 13-mer variant DCAWHLGELVQCT-(βA)(βA) | 0 | 0 | 0 |
| 01N: cellulose-bound 13-mer variant NCAWHLGELVWCT-(βA)(βA) (NCAWHLGELVWCT-{βAla-βAla-cellulose}; disulfide 2-12 (inferred); reading uncertain; also: printed as NCAWHLGELVWCT-(βA)(βA)) | 0 | 0 | + |
| 11E: cellulose-bound 13-mer variant DCAWHLGELVECT-(βA)(βA) (DCAWHLGELVECT-{βAla-βAla-cellulose}; disulfide 2-12 (inferred); reading uncertain; also: printed as DCAWHLGELVECT-(βA)(βA)) | 0 | 0 | 0 |

Other lines, results leading:

| Result for incubation with serum albumin (immunoglobulin binding detection) (serum albumin) | Result for incubation with human plasma (immunoglobulin binding detection) [1] | Result for incubation with human IgG-Fc (immunoglobulin binding detection) (human IgG-Fc) | Substance |
| --- | --- | --- | --- |
| 0 | 0 | 0 | 03Y: cellulose-bound 13-mer variant DCYWHLGELVWCT-(βA)(βA) (DCYWHLGELVWCT-{βAla-βAla-cellulose}; disulfide 2-12 (inferred); reading uncertain; also: printed as DCYWHLGELVWCT-(βA)(βA)) |
| 0 | 0 | 0 | 01F: cellulose-bound 13-mer variant FCAWHLGELVWCT-(βA)(βA) (FCAWHLGELVWCT-{βAla-βAla-cellulose}; disulfide 2-12 (inferred); reading uncertain; also: printed as FCAWHLGELVWCT-(βA)(βA)) |
| 0 | 0 | 0 | 09S: cellulose-bound 13-mer variant DCAWHLGESVWCT-(βA)(βA) (DCAWHLGESVWCT-{βAla-βAla-cellulose}; disulfide 2-12 (inferred); reading uncertain; also: printed as DCAWHLGESVWCT-(βA)(βA)) |
| 0 | 0 | 0 | 02T: cellulose-bound 13-mer variant DTAWHLGELVWCT-(βA)(βA) (DTAWHLGELVWCT[βAla][βAla]; not fully specified; printed as DTAWHLGELVWCT-(βA)(βA); also: cellulose-bound) |
| 0 | 0 | 0 | 11M: cellulose-bound 13-mer variant DCAWHLGELVMCT-(βA)(βA) |
| 0 | 0 | 0 | 02D: cellulose-bound 13-mer variant DDAWHLGELVWCT-(βA)(βA) (DDAWHLGELVWCT[βAla][βAla]; not fully specified; printed as DDAWHLGELVWCT-(βA)(βA); also: cellulose-bound) |
| 0 | 0 | 0 | 04G: cellulose-bound 13-mer variant DCAGHLGELVWCT-(βA)(βA) (DCAGHLGELVWCT[βAla][βAla]; disulfide 2-12 (inferred); also: cellulose-bound) |
| 0 | 0 | 0 | 09W: cellulose-bound 13-mer variant DCAWHLGEWVWCT-(βA)(βA) (DCAWHLGEWVWCT-{βAla-βAla-cellulose}; disulfide 2-12 (inferred); reading uncertain; also: printed as DCAWHLGEWVWCT-(βA)(βA)) |
| 0 | 0 | 0 | 07K: cellulose-bound 13-mer variant DCAWHLKELVWCT-(βA)(βA) (DCAWHLKELVWCT-{βAla-βAla-cellulose}; disulfide 2-12 (inferred); not fully specified (N-terminus); printed as DCAWHLKELVWCT-(βA)(βA); reading uncertain) |
